Test results from the NIST ThermoML archive (doi:10.1016/j.tca.2011.08.002).

Key:
[1] = xn = mol fraction of the nth substance listed; conditions: 101 kPa, Liquid, Vibrating tube method
[2] = refractive index (Na D-line) (dimensionless); xn = mol fraction of the nth substance listed; conditions: 101 kPa, Liquid, Standard Abbe refractometry

C1CCC(NC2CCCCC2)CC1 [N-cyclohexylcyclohexanamine] + CCC(C)O
Conditions | mass density, [1] [kg/m3] | refractive index, [2]
288.15 K, x2 = 0 | 915.498 | 1.48636
288.15 K, x2 = 0.0996 | 912.349 | 1.48336
288.15 K, x2 = 0.1998 | 908.349 | 1.47951
288.15 K, x2 = 0.3 | 903.446 | 1.47497
288.15 K, x2 = 0.3998 | 897.469 | 1.46961
288.15 K, x2 = 0.5011 | 889.89 | 1.4629
288.15 K, x2 = 0.599 | 880.802 | 1.45516
288.15 K, x2 = 0.6999 | 869.241 | 1.44554
288.15 K, x2 = 0.7998 | 854.484 | 1.43365
288.15 K, x2 = 0.8996 | 835.606 | 1.41884
288.15 K, x2 = 0.9494 | 823.99 | 1.41002
293.15 K, x2 = 0 | 911.705 | 1.48416
293.15 K, x2 = 0.0996 | 908.493 | 1.48112
293.15 K, x2 = 0.1998 | 904.427 | 1.47724
293.15 K, x2 = 0.3 | 899.455 | 1.47268
293.15 K, x2 = 0.3998 | 893.416 | 1.46731
293.15 K, x2 = 0.5011 | 885.775 | 1.46057
293.15 K, x2 = 0.599 | 876.639 | 1.45283
293.15 K, x2 = 0.6999 | 865.057 | 1.44322
293.15 K, x2 = 0.7998 | 850.31 | 1.43136
293.15 K, x2 = 0.8996 | 831.493 | 1.41658
293.15 K, x2 = 0.9494 | 819.925 | 1.40783
298.15 K, x2 = 0 | 907.923 | 1.48198
298.15 K, x2 = 0.0996 | 904.633 | 1.47892
298.15 K, x2 = 0.1998 | 900.497 | 1.47499
298.15 K, x2 = 0.3 | 895.457 | 1.47041
298.15 K, x2 = 0.3998 | 889.353 | 1.465
298.15 K, x2 = 0.5011 | 881.646 | 1.45825
298.15 K, x2 = 0.599 | 872.452 | 1.4505
298.15 K, x2 = 0.6999 | 860.838 | 1.44088
298.15 K, x2 = 0.7998 | 846.088 | 1.42906
298.15 K, x2 = 0.8996 | 827.317 | 1.41432
298.15 K, x2 = 0.9494 | 815.784 | 1.40558
303.15 K, x2 = 0 | 904.144 | 1.47978
303.15 K, x2 = 0.0996 | 900.775 | 1.47667
303.15 K, x2 = 0.1998 | 896.561 | 1.47273
303.15 K, x2 = 0.3 | 891.448 | 1.46813
303.15 K, x2 = 0.3998 | 885.272 | 1.4627
303.15 K, x2 = 0.5011 | 877.495 | 1.45591
303.15 K, x2 = 0.599 | 868.239 | 1.44817
303.15 K, x2 = 0.6999 | 856.586 | 1.43852
303.15 K, x2 = 0.7998 | 841.819 | 1.42671
303.15 K, x2 = 0.8996 | 823.072 | 1.412
303.15 K, x2 = 0.9494 | 811.566 | 1.40329
308.15 K, x2 = 0 | 900.372 | 1.47761
308.15 K, x2 = 0.0996 | 896.914 | 1.47445
308.15 K, x2 = 0.1998 | 892.619 | 1.47046
308.15 K, x2 = 0.3 | 887.426 | 1.4658
308.15 K, x2 = 0.3998 | 881.174 | 1.46034
308.15 K, x2 = 0.5011 | 873.319 | 1.45358
308.15 K, x2 = 0.599 | 863.994 | 1.44577
308.15 K, x2 = 0.6999 | 852.289 | 1.43617
308.15 K, x2 = 0.7998 | 837.495 | 1.42437
308.15 K, x2 = 0.8996 | 818.755 | 1.40968
308.15 K, x2 = 0.9494 | 807.262 | 1.40094
313.15 K, x2 = 0 | 896.608 | 1.47562
313.15 K, x2 = 0.0996 | 893.053 | 1.4722
313.15 K, x2 = 0.1998 | 888.669 | 1.46818
313.15 K, x2 = 0.3 | 883.39 | 1.46347
313.15 K, x2 = 0.3998 | 877.057 | 1.45797
313.15 K, x2 = 0.5011 | 869.116 | 1.45115
313.15 K, x2 = 0.599 | 859.715 | 1.44326
313.15 K, x2 = 0.6999 | 847.947 | 1.43367
313.15 K, x2 = 0.7998 | 833.106 | 1.42179
313.15 K, x2 = 0.8996 | 814.354 | 1.40723
313.15 K, x2 = 0.9494 | 802.87 | 1.39851
318.15 K, x2 = 0 | 892.847 | 1.47347
318.15 K, x2 = 0.0996 | 889.189 | 1.46999
318.15 K, x2 = 0.1998 | 884.706 | 1.46593
318.15 K, x2 = 0.3 | 879.336 | 1.46119
318.15 K, x2 = 0.3998 | 872.915 | 1.45564
318.15 K, x2 = 0.5011 | 864.882 | 1.44879
318.15 K, x2 = 0.599 | 855.394 | 1.44089
318.15 K, x2 = 0.6999 | 843.552 | 1.43125
318.15 K, x2 = 0.7998 | 828.652 | 1.41937
318.15 K, x2 = 0.8996 | 809.861 | 1.40479
318.15 K, x2 = 0.9494 | 798.377 | 1.39613
323.15 K, x2 = 0 | 889.089 | 1.47134
323.15 K, x2 = 0.0996 | 885.321 | 1.46783
323.15 K, x2 = 0.1998 | 880.732 | 1.46374
323.15 K, x2 = 0.3 | 875.264 | 1.45889
323.15 K, x2 = 0.3998 | 868.746 | 1.45336
323.15 K, x2 = 0.5011 | 860.611 | 1.44656
323.15 K, x2 = 0.599 | 851.029 | 1.43856
323.15 K, x2 = 0.6999 | 839.101 | 1.42888
323.15 K, x2 = 0.7998 | 824.126 | 1.41694
323.15 K, x2 = 0.8996 | 805.292 | 1.40233
323.15 K, x2 = 0.9494 | 793.784 | 1.39357

C1CCC(NC2CCCCC2)CC1 [N-cyclohexylcyclohexanamine] + CC(C)(C)O
Conditions | mass density, 303.15 K [kg/m3] | mass density, 308.15 K [kg/m3] | mass density, 313.15 K [kg/m3] | mass density, 318.15 K [kg/m3] | mass density, 323.15 K [kg/m3] | refractive index, 303.15 K | refractive index, 308.15 K | refractive index, 313.15 K | refractive index, 318.15 K | refractive index, 323.15 K
[1], x2 = 0 | 904.144 | 900.372 | 896.608 | 892.847 | 889.089 | – | – | – | – | –
[1], x2 = 0.1 | 899.362 | 895.452 | 891.533 | 887.611 | 883.684 | – | – | – | – | –
[1], x2 = 0.199 | 893.462 | 889.433 | 885.384 | 881.326 | 877.25 | – | – | – | – | –
[1], x2 = 0.289 | 887.197 | 883.071 | 878.917 | 874.742 | 870.544 | – | – | – | – | –
[1], x2 = 0.4 | 878.023 | 873.772 | 869.49 | 865.171 | 860.821 | – | – | – | – | –
[1], x2 = 0.485 | 869.715 | 865.366 | 860.973 | 856.539 | 852.063 | – | – | – | – | –
[1], x2 = 0.6 | 856.549 | 852.061 | 847.522 | 842.928 | 838.281 | – | – | – | – | –
[1], x2 = 0.698 | 843.066 | 838.44 | 833.751 | 829.003 | 824.196 | – | – | – | – | –
[1], x2 = 0.801 | 825.644 | 820.845 | 815.974 | 811.036 | 806.029 | – | – | – | – | –
[1], x2 = 0.849 | 815.948 | 811.061 | 806.1 | 801.065 | 795.955 | – | – | – | – | –
[1], x2 = 0.9 | 804.266 | 799.276 | 794.206 | 789.061 | 783.837 | – | – | – | – | –
[2], x2 = 0 | – | – | – | – | – | 1.47978 | 1.47761 | 1.47562 | 1.47347 | 1.47134
[2], x2 = 0.1 | – | – | – | – | – | 1.47584 | 1.47362 | 1.47142 | 1.46916 | 1.467
[2], x2 = 0.199 | – | – | – | – | – | 1.47107 | 1.46875 | 1.46639 | 1.4641 | 1.46188
[2], x2 = 0.289 | – | – | – | – | – | 1.46609 | 1.46373 | 1.46133 | 1.45899 | 1.45674
[2], x2 = 0.4 | – | – | – | – | – | 1.45896 | 1.4565 | 1.45403 | 1.45163 | 1.44932
[2], x2 = 0.485 | – | – | – | – | – | 1.45238 | 1.44994 | 1.44742 | 1.44498 | 1.44272
[2], x2 = 0.6 | – | – | – | – | – | 1.4423 | 1.43973 | 1.43717 | 1.43461 | 1.43215
[2], x2 = 0.698 | – | – | – | – | – | 1.43185 | 1.42927 | 1.42663 | 1.42401 | 1.42155
[2], x2 = 0.801 | – | – | – | – | – | 1.41877 | 1.41609 | 1.41336 | 1.41073 | 1.4081
[2], x2 = 0.849 | – | – | – | – | – | 1.41128 | 1.40862 | 1.40587 | 1.40316 | 1.40048
[2], x2 = 0.9 | – | – | – | – | – | 1.40275 | 1.40004 | 1.39727 | 1.39449 | 1.39193
